Reference: US20100267561A1, “HERBICIDAL PYRIDAZINONE DERIVATIVES” (priority 2007, published 2010)

Tests used:
Format in all cases: in vivo
[1] = system: barnyardgrass (Echinochloa crus-galli); test: Test A pre-/postemergence plant response
Summary of the method: (§1)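 Seeds were planted in blended loam soil and sand, then treated preemergence by directed soil spray. At that time, emerged plants (one- to two-leaf, 2–10 cm) received postemergence applications of the same surfactant-containing formulation. Injury was assessed visually on a 0–100 scale after approximately 10 days.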

corn (Zea mays) = test: Test A pre-/postemergence plant response
Summary of the method: as §1

[2] = system: giant foxtail (Setaria faberi); test: Test A pre-/postemergence plant response
Summary of the method: as §1

[3] = system: large crabgrass (Digitaria sanguinalis); test: Test A pre-/postemergence plant response
Summary of the method: as §1

[4] = system: morningglory (Ipomoea coccinea); test: Test A pre-/postemergence plant response
Summary of the method: as §1

[5] = system: pigweed (Amaranthus retroflexus); test: Test A pre-/postemergence plant response
Summary of the method: as §1

[6] = system: velvetleaf (Abutilon theophrasti); test: Test A pre-/postemergence plant response
Summary of the method: as §1

[7] = system: wheat (Triticum aestivum); test: Test A pre-/postemergence plant response
Summary of the method: as §1

[8] = system: blackgrass (Alopecurus myosuroides); test: Test B pre-/postemergence plant response; settings: for Blackgrass plant response rating: 8 g ai/ha
Source text: (§2) Seeds of plant species selected from blackgrass (Alopecurus myosuroides), downy bromegrass (Bromus tectorum), green foxtail (Setaria viridis), Italian ryegrass (Lolium multiflorum), wheat (Triticum aestivum), wild oat (Avena fatua), catchweed bedstraw (Galium aparine), bermudagrass (Cynodon dactylon), surinam grass (Brachiaria decumbens), cocklebur (Xanthium strumarium), corn (Zea mays), large crabgrass (Digitaria sanguinalis), woolly cupgrass (Eriochloa villosa), giant foxtail (Setaria faberii), goosegrass (Eleusine indica), johnsongrass (Sorghum halepense), kochia (Kochia scoparia), lambsquarters (Chenopodium album), morningglory (Ipomoea coccinea), eastern black (E.B.) nightshade (Solanum ptycanthum), yellow nutsedge (Cyperus esculentus), pigweed (Amaranthus retroflexus), common ragweed (Ambrosia elation), Russian thistle (Salsola iberica), soybean (Glycine max), common (oilseed) sunflower (Helianthus annuus), and velvetleaf (Abutilon theophrasti) were planted and treated preemergence with test chemicals formulated in a non-phytotoxic solvent mixture which included a surfactant.
(§3) At the same time, plants selected from these crop and weed species and also winter barley (Hordeum vulgare), canarygrass (Phalaris minor), chickweed (Stellaria media) and windgrass (Apera spica-venti) were treated with postemergence applications of some of the test chemicals formulated in the same manner. Plants ranged in height from 2 to 18 cm (1- to 4-leaf stage) for postemergence treatments.
(§4) Plant species in the flooded paddy test consisted of rice (Oryza sativa), umbrella sedge (Cyperus difformis), ducksalad (Heteranthera limosa) and barnyardgrass (Echinochloa crus-galli) grown to the 2-leaf stage for testing. At time of treatment, test pots were flooded to 3 cm above the soil surface, treated by application of test compounds directly to the paddy water, and then maintained at that water depth for the duration of the test. Treated plants and controls were maintained in a greenhouse for 13 to 15 days, after which time all species were compared to controls and visually evaluated. Plant response ratings, summarized in Table B, are based on a scale of 0 to 100 where 0 is no effect and 100 is complete control. A dash (-) response means no test result.

[9] = system: catchweed bedstraw (Galium aparine); test: Test B pre-/postemergence plant response; settings: Preemergence
Source text: as §2, §3, §4

[10] = system: yellow nutsedge (Cyperus esculentus); test: Test B pre-/postemergence plant response; settings: for Nutsedge, Yellow plant response rating: 8 g ai/ha
Source text: as §2, §3, §4

[11] = Postemergence, 31 g ai/ha, 0 to 100 scale (0 no effect, 100 complete control)
[12] = Postemergence, 125 g ai/ha, 0 to 100 scale, 0 no effect, 100 complete control
[13] = Preemergence, 31 g ai/ha, 0 to 100 scale, 0 is no effect, 100 is complete control
[14] = Preemergence, 125 g ai/ha, 0 to 100 scale (0 no effect, 100 complete control)
[15] = Postemergence, 16 g ai/ha, scale 0 to 100
[16] = Postemergence, 31 g ai/ha, scale 0 to 100, 0 no effect, 100 complete control
[17] = Postemergence, 62 g ai/ha, scale 0 to 100, 0 no effect, 100 complete control
[18] = Preemergence, 16 g ai/ha, scale 0 to 100 (0 no effect, 100 complete control)
[19] = Preemergence, 62 g ai/ha, scale 0 to 100

CCc1cc(-c2ccc(Cl)cc2)nn1-c1c(OC(=O)C(C)(C)C)cnn(C)c1=O [Compound 40]
Plant response rating, Barnyardgrass [1, 11]: 100 | Plant response rating, Barnyardgrass [1, 12]: 100 | Plant response rating, Barnyardgrass [1, 13]: 100 | Plant response rating, Barnyardgrass [1, 14]: 100 | Plant response rating, Corn (corn (Zea mays); [11]): 90 | Plant response rating, Corn (corn (Zea mays); [12]): 100 | Plant response rating, Corn (corn (Zea mays); [13]): 30 | Plant response rating, Corn (corn (Zea mays); [14]): 90 | Plant response rating, Foxtail, Giant [2, 11]: 100 | Plant response rating, Foxtail, Giant [2, 12]: 100 | Plant response rating, Foxtail, Giant [2, 13]: 100 | Plant response rating, Foxtail, Giant [2, 14]: 100 | Plant response rating, Crabgrass, Large [3, 11]: 70 | Plant response rating, Crabgrass, Large [3, 12]: 100 | Plant response rating, Crabgrass, Large [3, 13]: 70 | Plant response rating, Crabgrass, Large [3, 14]: 100 | Plant response rating, Morningglory [4, 11]: 0 | Plant response rating, Morningglory [4, 12]: 0 | Plant response rating, Morningglory [4, 13]: 0 | Plant response rating, Morningglory [4, 14]: 0 | Plant response rating, Pigweed [5, 11]: 0 | Plant response rating, Pigweed [5, 12]: 0 | Plant response rating, Pigweed [5, 13]: 0 | Plant response rating, Velvetleaf [6, 11]: 0 | Plant response rating, Velvetleaf [6, 12]: 0 | Plant response rating, Velvetleaf [6, 13]: 0 | Plant response rating, Velvetleaf [6, 14]: 0 | Plant response rating, Wheat [7, 11]: 70 | Plant response rating, Wheat [7, 12]: 90 | Plant response rating, Wheat [7, 13]: 50 | Plant response rating, Wheat [7, 14]: 90 | Blackgrass plant response rating ([8]; postemergence, 0-100 scale): 85 | Plant response rating, Blackgrass [8, 15]: 90 | Plant response rating, Blackgrass [8, 16]: 90 | Plant response rating, Blackgrass [8, 17]: 90 | Plant response rating, Blackgrass [8, 18]: 95 | Plant response rating, Blackgrass ([8]; Preemergence, 31 g ai/ha, 0 to 100 scale, 0 no effect, 100 complete control): 95 | Plant response rating, Blackgrass [8, 19]: 95 | Blackgrass plant response rating ([8]; Preemergence, scale 0 to 100): 95 | Plant response rating, Galium ([9]; 16 g ai/ha, scale 0 to 100 (0 no effect, 100 complete control)): 0 | Plant response rating, Galium ([9]; 31 g ai/ha, 0 to 100 scale, 0 no effect, 100 complete control): 0 | Plant response rating, Galium ([9]; 62 g ai/ha, scale 0 to 100): 0 | Galium plant response rating ([9]; 8 g ai/ha, scale 0 to 100): 0 | Nutsedge, Yellow plant response rating ([10]; postemergence, 0-100 scale): 0 | Plant response rating, Nutsedge, Yellow [10, 15]: 0 | Plant response rating, Nutsedge, Yellow [10, 16]: 0 | Plant response rating, Nutsedge, Yellow [10, 17]: 0 | Plant response rating, Nutsedge, Yellow [10, 18]: 0 | Plant response rating, Nutsedge, Yellow ([10]; Preemergence, 31 g ai/ha, scale 0 to 100 (0 no effect, 100 complete control)): 0 | Plant response rating, Nutsedge, Yellow [10, 19]: 0 | Nutsedge, Yellow plant response rating ([10]; Preemergence, scale 0 to 100): 0
